In the supplement of paper PMC10307832:

Columns and labels:
Assay in all cases: relative viability (nuclei count vs DMSO), 5 days (fraction); higher = more cells survive
NCI-H2085 = system: NCI-H2085
Method in brief: (§1)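 For relative viability, nuclei counts in treated wells were divided by those in vehicle wells. Lung cancer cell lines had been pin-tool dosed in 1536-well plates the day after seeding and cultured for 5 days, then fixed and stained in one step (final 0.05% Triton X-100, 1% formaldehyde, 1 ug/ml Hoechst) and imaged at 4×. Doses were one drug alone or a fixed anchor-drug dose plus five library-drug doses (not always all listed) in √10 steps, and values are duplicate-plate medians.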

NCI-H1975 = system: NCI-H1975
Method in brief: as §1

NCI-H1437 = system: NCI-H1437
Method in brief: as §1

LOU-NH91 = system: LOU-NH91
Method in brief: as §1

NCI-H838 = system: NCI-H838
Method in brief: as §1

NCI-H2023 = system: NCI-H2023
Method in brief: as §1

CAL-12T = system: CAL-12T
Method in brief: as §1

NCI-H1650 = system: NCI-H1650
Method in brief: as §1

NCI-H460 = system: NCI-H460
Method in brief: as §1

NCI-H1651 = system: NCI-H1651
Method in brief: as §1

COR-L23 = system: COR-L23
Method in brief: as §1

NCI-H1355 = system: NCI-H1355
Method in brief: as §1

NCI-H441 = system: NCI-H441
Method in brief: as §1

SK-LU-1 = system: SK-LU-1
Method in brief: as §1

NCI-H1734 = system: NCI-H1734
Method in brief: as §1

HCC-366 = system: HCC-366
Method in brief: as §1

LU99A = system: LU99A
Method in brief: as §1

NCI-H1793 = system: NCI-H1793
Method in brief: as §1

NCI-H358 = system: NCI-H358
Method in brief: as §1

NCI-H2342 = system: NCI-H2342
Method in brief: as §1

BEN = system: BEN
Method in brief: as §1

Nc1ccn([C@@H]2O[C@H](CO)[C@@H](O)[C@@H]2O)c(=O)n1 [Cytarabine] + O=C(c1cc(Cc2n[nH]c(=O)c3ccccc23)ccc1F)N1CCN(C(=O)C2CC2)CC1 [Olaparib] (partner 8 µM)
relative viability (NCI-H2085; first compound 0.005 µM): 0.718
relative viability (NCI-H2085; first compound 0.01581 µM): 0.727
relative viability (NCI-H2085; first compound 0.05 µM): 0.802
relative viability (NCI-H2085; first compound 0.1581 µM): 0.655
relative viability (NCI-H2085; first compound 0.5 µM): 0.61
relative viability (NCI-H1975; first compound 0.005 µM): 0.671
relative viability (NCI-H1975; first compound 0.01581 µM): 0.871
relative viability (NCI-H1975; first compound 0.05 µM): 0.561
relative viability (NCI-H1975; first compound 0.1581 µM): 0.429
relative viability (NCI-H1975; first compound 0.5 µM): 0.253
relative viability (NCI-H1437; first compound 0.005 µM): 0.529
relative viability (NCI-H1437; first compound 0.01581 µM): 0.51
relative viability (NCI-H1437; first compound 0.05 µM): 0.469
relative viability (NCI-H1437; first compound 0.1581 µM): 0.283
relative viability (NCI-H1437; first compound 0.5 µM): 0.234
relative viability (LOU-NH91; first compound 0.005 µM): 0.89
relative viability (LOU-NH91; first compound 0.01581 µM): 0.905
relative viability (LOU-NH91; first compound 0.05 µM): 0.833
relative viability (LOU-NH91; first compound 0.1581 µM): 0.676
relative viability (LOU-NH91; first compound 0.5 µM): 0.625
relative viability (NCI-H838; first compound 0.005 µM): 0.633
relative viability (NCI-H838; first compound 0.01581 µM): 0.655
relative viability (NCI-H838; first compound 0.05 µM): 0.643
relative viability (NCI-H838; first compound 0.1581 µM): 0.278
relative viability (NCI-H838; first compound 0.5 µM): 0.197
relative viability (NCI-H2023; first compound 0.005 µM): 0.382
relative viability (NCI-H2023; first compound 0.01581 µM): 0.276
relative viability (NCI-H2023; first compound 0.05 µM): 0.236
relative viability (NCI-H2023; first compound 0.1581 µM): 0.0812
relative viability (NCI-H2023; first compound 0.5 µM): 0.0898
relative viability (CAL-12T; first compound 0.005 µM): 0.859
relative viability (CAL-12T; first compound 0.01581 µM): 0.68
relative viability (CAL-12T; first compound 0.05 µM): 0.537
relative viability (CAL-12T; first compound 0.1581 µM): 0.288
relative viability (CAL-12T; first compound 0.5 µM): 0.223
relative viability (NCI-H1650; first compound 0.005 µM): 0.638
relative viability (NCI-H1650; first compound 0.01581 µM): 0.772
relative viability (NCI-H1650; first compound 0.05 µM): 0.472
relative viability (NCI-H1650; first compound 0.1581 µM): 0.268
relative viability (NCI-H1650; first compound 0.5 µM): 0.168
relative viability (NCI-H460; first compound 0.005 µM): 0.355
relative viability (NCI-H460; first compound 0.01581 µM): 0.367
relative viability (NCI-H460; first compound 0.05 µM): 0.237
relative viability (NCI-H460; first compound 0.1581 µM): 0.0662
relative viability (NCI-H460; first compound 0.5 µM): 0.0537
relative viability (NCI-H1651; first compound 0.005 µM): 0.187
relative viability (NCI-H1651; first compound 0.01581 µM): 0.193
relative viability (NCI-H1651; first compound 0.05 µM): 0.181
relative viability (NCI-H1651; first compound 0.1581 µM): 0.199
relative viability (NCI-H1651; first compound 0.5 µM): 0.168
relative viability (COR-L23; first compound 0.005 µM): 0.305
relative viability (COR-L23; first compound 0.01581 µM): 0.309
relative viability (COR-L23; first compound 0.05 µM): 0.275
relative viability (COR-L23; first compound 0.1581 µM): 0.131
relative viability (COR-L23; first compound 0.5 µM): 0.124
relative viability (NCI-H1355; first compound 0.005 µM): 0.731
relative viability (NCI-H1355; first compound 0.01581 µM): 0.673
relative viability (NCI-H1355; first compound 0.05 µM): 0.57
relative viability (NCI-H1355; first compound 0.1581 µM): 0.396
relative viability (NCI-H1355; first compound 0.5 µM): 0.344
relative viability (NCI-H441; first compound 0.005 µM): 0.451
relative viability (NCI-H441; first compound 0.01581 µM): 0.48
relative viability (NCI-H441; first compound 0.05 µM): 0.375
relative viability (NCI-H441; first compound 0.1581 µM): 0.354
relative viability (NCI-H441; first compound 0.5 µM): 0.175
relative viability (SK-LU-1; first compound 0.005 µM): 0.472
relative viability (SK-LU-1; first compound 0.01581 µM): 0.392
relative viability (SK-LU-1; first compound 0.05 µM): 0.32
relative viability (SK-LU-1; first compound 0.1581 µM): 0.284
relative viability (SK-LU-1; first compound 0.5 µM): 0.235
relative viability (NCI-H1734; first compound 0.005 µM): 0.4
relative viability (NCI-H1734; first compound 0.01581 µM): 0.243
relative viability (NCI-H1734; first compound 0.05 µM): 0.183
relative viability (NCI-H1734; first compound 0.1581 µM): 0.108
relative viability (NCI-H1734; first compound 0.5 µM): 0.122
relative viability (HCC-366; first compound 0.005 µM): 0.316
relative viability (HCC-366; first compound 0.01581 µM): 0.362
relative viability (HCC-366; first compound 0.05 µM): 0.32
relative viability (HCC-366; first compound 0.1581 µM): 0.136
relative viability (HCC-366; first compound 0.5 µM): 0.0939
relative viability (LU99A; first compound 0.005 µM): 0.307
relative viability (LU99A; first compound 0.01581 µM): 0.28
relative viability (LU99A; first compound 0.05 µM): 0.24
relative viability (LU99A; first compound 0.1581 µM): 0.24
relative viability (LU99A; first compound 0.5 µM): 0.241
relative viability (NCI-H1793; first compound 0.005 µM): 0.989
relative viability (NCI-H1793; first compound 0.01581 µM): 0.847
relative viability (NCI-H1793; first compound 0.05 µM): 0.887
relative viability (NCI-H1793; first compound 0.1581 µM): 0.359
relative viability (NCI-H1793; first compound 0.5 µM): 0.244
relative viability (NCI-H358; first compound 0.005 µM): 0.443
relative viability (NCI-H358; first compound 0.01581 µM): 0.491
relative viability (NCI-H358; first compound 0.05 µM): 0.379
relative viability (NCI-H358; first compound 0.1581 µM): 0.145
relative viability (NCI-H358; first compound 0.5 µM): 0.115
relative viability (NCI-H2342; first compound 0.005 µM): 0.477
relative viability (NCI-H2342; first compound 0.01581 µM): 0.477
relative viability (NCI-H2342; first compound 0.05 µM): 0.468
relative viability (NCI-H2342; first compound 0.1581 µM): 0.389
relative viability (NCI-H2342; first compound 0.5 µM): 0.31
relative viability (BEN; first compound 0.005 µM): 0.822
relative viability (BEN; first compound 0.01581 µM): 0.703
relative viability (BEN; first compound 0.05 µM): 0.637
relative viability (BEN; first compound 0.1581 µM): 0.447
relative viability (BEN; first compound 0.5 µM): 0.384
